From patent US20170217899A1, “NOVEL HALOGEN-SUBSTITUTED COMPOUNDS” (BAYER CROPSCIENCE AKTIENGESELLSCHAFT, priority 2014, published 2017)
Like-named read-outs stand apart in the source and are kept apart here.

Assays:
[1] = logP determination by HPLC on reversed-phase column (C18), EEC Directive 79/831 Annex V.A8; assay type: physicochemical; conditions: for chromatographic logP: reversed-phase HPLC column (C18)
Boophilus microplus = Boophilus microplus injection test (BOOPMI Inj); assay type: in vivo; conditions: 20 μg/animal, injection into adult engorged female ticks, egg deposition after 7 days
Protocol: Boophilus Microplus—Injectiontest (BOOPMI Inj)
(§1) Solvent: Dimethyl Sulfoxide
To produce a suitable preparation of active compound, 10 mg of active compound are dissolved in 0.5 ml solvent, and the concentrate is diluted with solvent to the desired concentration.
Five adult engorged female ticks (Boophilus microplus) are injected with 1 μl compound solution into the abdomen. The ticks are transferred into replica plates and incubated in a climate chamber.
After 7 days egg deposition of fertile eggs is monitored. Eggs where fertility is not visible are stored in a climate chamber till hatching after about 42 days. An efficacy of 100% means all eggs are infertile; 0% means all eggs are fertile.

Ctenocephalides felis = Ctenocephalides felis oral test (CTECFE); assay type: in vivo; conditions: 100 ppm in cattle blood, adult cat fleas, after 2 days
Protocol: Ctenocephalides felis—Oral Test (CTECFE)
as §1
To produce a suitable preparation of active compound, 10 mg of active compound are dissolved in 0.5 ml solvent, and the concentrate is diluted with cattle blood to the desired concentration.
Approximately 20 adult unfed cat fleas (Cienocephalides felis) are placed in flea chambers. The blood chamber, sealed with parafilm on the bottom, are filled with cattle blood supplied with compound solution and placed on the gauze covered top of the flea chamber, so that the fleas are able to suck the blood. The blood chamber is heated to 37° C. whereas the flea chamber is kept at room temperature.
After 2 days mortality in % is determined. 100% means all the fleas have been killed; 0% means none of the fleas have been killed.

Lucilia cuprina = Lucilia cuprina test (LUCICU); assay type: in vivo; conditions: 100 ppm, 1st instar larvae, after 2 days
Protocol: Lucilia cunrina—Test (LUCICU)
as §1
10 mg active compound are dissolved in 0.5 ml Dimethylsulfoxid. Serial dilutions are made to obtain the desired rates.
Approximately 20 1st instar larvae of the Australian sheep blowfly (Lucilia cuprina) are transferred into a test tube containing minced horse meat and compound solution of the desired concentration.
After 2 days mortality in % is determined. 100% means all the larvae have been killed; 0% means none of the larvae have been killed.

Spodoptera frugiperda = Spodoptera frugiperda spray test; assay type: in vivo; conditions: for mortality: 100 g/ha, maize leaf sections, larvae, after 7 days
Protocol: Spodoptera Frugiperda—Spray Test
(§2) To produce a suitable preparation of active compound, 1 part by weight of active compound is mixed with the stated amount of solvents and is diluted with water, containing an emulsifier concentration of 1000 ppm, to the desired concentration. Further test concentrations are prepared by dilution with emulsifier containing water.
Maize (Zea mays) leaf sections are sprayed with a preparation of the active ingredient of the desired concentration. Once dry, the leaf sections are infested with fall armyworm larvae (Spodoptera frugiperda).
After 7 days mortality in % is determined. 100% means all caterpillars have been killed and 0% means none of the caterpillars have been killed.

Phaedon cochleariae = Phaedon cochleariae spray test; assay type: in vivo; conditions: in Brassica rapa, foliar, 168 h
Protocol: Phaedon cochleariae—Spray Test
as §2
Chinese cabbage (Brassica pekinensis) leaf disks are sprayed with a preparation of the active ingredient of the desired concentration. Once dry, the leaf disks are infested with mustard beetle larvae (Phaedon cochleariae).
After 7 days mortality in % is determined. 100% means all beetle larvae have been killed and 0% means none of the beetle larvae have been killed.

Tetranychus urticae = Tetranychus urticae spray test OP-resistant; assay type: in vivo; conditions: in Phaseolus vulgaris, foliar, 144 h
Protocol: Tetranychus urticae—Spray Test OP-Resistant
as §2
French bean (Phaseolus vulgaris) leaf disks infected with all instars of the two spotted spidermite (Tetranychus urticae), are sprayed with a preparation of the active ingredient of the desired concentration.
After 6 days mortality in % is determined. 100% means all spider mites have been killed and 0% means none of the spider mites have been killed.

Myzus persicae = Myzus persicae spray test; assay type: in vivo; conditions: 100 g/ha, Chinese cabbage leaf disks, all instars, after 6 days
Protocol: Myzus Persicae—Spray Test
as §2
Chinese cabbage (Brassica pekinensis) leaf disks infected with all instars of the green peach aphid (Myzus persicae), are sprayed with a preparation of the active ingredient of the desired concentration.
After 6 days mortality in % is determined. 100% means all aphids have been killed and 0% means none of the aphids have been killed.

[2] = HPLC, C18, acetonitrile (0.1% formic acid)/water (0.09% formic acid) gradient
[3] = intermediates, values in text, same HPLC method
[4] = intermediates, values in text, same HPLC method, read-out: log P (HPLC-MS)
[5] = HPLC, C18, acetonitrile (0.1% formic acid)/water (0.09% formic acid) gradient, read-out: logP

chromatographic logP [1, 4]	Compound	logP [1, 2]	other results
	Cn1nc(C2(F)CC2)c([N+](=O)[O-])c1-n1cc(-c2ccc(Cl)c(C(=O)NC3(C#N)CC3)c2)cn1 [Example I-4]	2.69	efficacy (infertile eggs) (Boophilus microplus): 100%; mortality (Ctenocephalides felis): 100%; mortality (Lucilia cuprina): 100%
	5′-(1-fluorocyclopropyl)-4-iodo-2′-methyl-2′H-1,3′-bipyrazole-4′-carbaldehyde [Example 25]		log P (HPLC-MS) [1, 3]: 2.86
3.63	COC(=O)c1cc(-c2cnn(-c3c(C(F)F)c(C4(F)CC4)nn3C)c2)ccc1Cl [Example 28, methyl 2-chloro-5-[4′-(difluoromethyl)-5′-(1-fluorocyclopropyl)-2′-methyl-2′H-1,3′-bipyrazol-4-yl]benzoate]		
2.71	Cn1nc(C2(F)CC2)c(C(F)F)c1-n1cc(-c2ccc(Cl)c(C(=O)O)c2)cn1 [Example 29, 2-chloro-5-[4′-(difluoromethyl)-5′-(1-fluorocyclopropyl)-2′-methyl-2′H-1,3′-bipyrazol-4-yl]benzoic acid]		
1.31	N#CC1(NC(=O)c2cc(-c3cn[nH]c3)ccc2Cl)CC1 [Example 14, 2-chloro-N-(1-cyanocyclopropyl)-5-(1H-pyrazol-4-yl)benzamide]		
	Cn1nc(C2(Cl)CC2)c(C(F)F)c1-n1cc(-c2cnc(Cl)c(C(=O)NC3(C#N)CC3)c2)cn1 [Example I-9]	2.63	
	Cn1nc(C2(Cl)CC2)c(C(F)F)c1-n1cc(-c2ccc(Cl)c(C(=O)NC3CC3)c2)cn1 [Example I-8]	3.05	mortality (Spodoptera frugiperda): 100%
	Cn1nc(C2(F)CC2)c(C(F)F)c1-n1cc(-c2cnc(Cl)c(C(=O)NC3CC3)c2)cn1 [Example I-12]	2.42	
	Cn1nc(C2(F)CC2)c(C(F)F)c1-n1cc(-c2ccc(Cl)c(C(=O)NC3CC3)c2)cn1 [Example I-3]	2.81	
	Cn1nc(C2(Br)CC2)c([N+](=O)[O-])c1-n1cc(-c2ccc(Cl)c(C(=O)NC3CC3)c2)cn1 [Example I-6]	2.98	
1.16	CN(C)/C=C/C(=O)C1(F)CC1 [Example 16, (2E)-3-(dimethylamino)-1-(1-fluorocyclopropyl)prop-2-en-1-one]		
0.38	CN1N=C(C2(F)CC2)CC1=O [Example 32, 5-(1-fluorocyclopropyl)-2-methyl-2,4-dihydro-3H-pyrazol-3-one]		
	Cn1nc(C2(F)CC2)c(C(F)F)c1-n1cc(-c2ccc(Cl)c(C(=O)NC3(C#N)CC3)c2)cn1 [Example I-2, 2-chloro-N-(1-cyanocyclopropyl)-5-[4′-(difluoromethyl)-5′-(1-fluorocyclopropyl)-2′-methyl-2′H-1,3′-bipyrazol-4-yl]benzamide]		chromatographic logP [1, 5]: 2.78; mortality at 100 g/ha (Phaedon cochleariae): 100%; mortality at 100 g/ha (Spodoptera frugiperda; Spodoptera frugiperda, in Zea mays, 168 h): 100%; mortality at 100 g/ha (Tetranychus urticae): 100%
	Cn1nc(C2(F)CC2)c(C(F)F)c1-n1cc(-c2cnc(Cl)c(C(=O)NC3(C#N)CC3)c2)cn1 [Example I-11]	2.44	
	Cn1nc(C2(Cl)CC2)c(C(F)F)c1-n1cc(-c2ccc(Cl)c(C(=O)NC3(C#N)CC3)c2)cn1 [Example I-7]	2.96	mortality (Myzus persicae): 90%; mortality (Spodoptera frugiperda): 100%
	Cn1nc(C2(Cl)CC2)c(C(F)F)c1-n1cc(-c2cnc(Cl)c(C(=O)NC3CC3)c2)cn1 [Example I-10]	2.60	
1.71	Cn1nc(C2(F)CC2)c(C=O)c1Cl [Example 24, 5-chloro-3-(1-fluorocyclopropyl)-1-methyl-1H-pyrazole-4-carbaldehyde]		
	Cn1nc(C2(F)CC2)c(C(F)(F)F)c1-n1cc(-c2ccc(Cl)c(C(=O)NC3(C#N)CC3)c2)cn1 [Example I-1, 2-chloro-N-(1-cyanocyclopropyl)-5-[5′-(1-fluorocyclopropyl)-2′-methyl-4′-(trifluoromethyl)-2′H-1,3′-bipyrazol-4-yl]benzamide]		chromatographic logP [1, 5]: 3.09
	Cn1nc(C2(F)CC2)c([N+](=O)[O-])c1-n1cc(-c2ccc(Cl)c(C(=O)NC3CC3)c2)cn1 [Example I-5]	2.70	
	4′-(difluoromethyl)-5′-(1-fluorocyclopropyl)-4-iodo-2′-methyl-2′H-1,3′-bipyrazole [Example 26]		log P (HPLC-MS) [1, 3]: 3.37
